Laboratory results reported in patent US20260132103A1, “Bumetanide Derivatives for the Therapy of Stroke and Other Neurological Diseases/Disorders Involving NKCCs” (University of Pittsburgh - Of the Commonwealth System of …, priority 2018, published 2026).

Assays:
[1] = tested on: transient focal cerebral ischemia (tMCAO) in mice; experiment: Brain infarct volume and swelling after transient focal cerebral ischemia (tMCAO); assay type: in vivo, mouse; details: 24 h reperfusion, i.p.
Method: (§1) FIGS. 1A-1C: Efficacy of NKCC1 inhibitors in reducing ischemic infarction, cerebral edema, and the post-stroke survival in normotensive mice after tMCAO (see Example 3). (1A) Experimental protocol and data collection. Transient middle cerebral artery occlusion (tMCAO) was induced in normal C57/b6 mice. DMSO, BMT (10 mg/kg body weight), STS5 (13 mg/kg) or STS66 (12 mg/kg) was administered via intraperitoneal injection (i.p.) as described in method. (1 B) Representative TTC staining images in normotensive mice at 24 h reperfusion with quantitative analysis of infarct volume. Data are mean±SD, n=6-13 (male, n=3-9; female, n=3-4, *p<0.05). Scale: 5 mm. (1C) Percentage hemisphere swelling at 24 h reperfusion. Data are mean±SD, n=6-13, *p<0.05. (1D) Body weight change during 1-14 days after tMCAO. Data are mean±SD, n=5-9 (male, n=4; female, n=2, *p<0.05). (1E) Survival curve during 1-14 day after tMCAO. Data are mean±SD, n=5-9 (male, n=3-7; female, n=2, *p<0.05).
(§2) Transient focal cerebral ischemia was induced in mice by intraluminal occlusion of the left middle cerebral artery (MCA) for 50 min as described previously (Chen H et al., 2005). Mice were anesthetized with 3% isoflurane in 70%: 30% N2O/O2 until they were unresponsive to the tail pinch test. Animals were then fitted with a nose cone blowing 1.5% isoflurane for anesthesia maintenance. The left common carotid artery was exposed and the occipital artery branches of the external carotid artery were isolated and coagulated. The internal carotid artery was isolated and the extracranial branch was dissected and ligated. A rubber silicon-coated monofilament suture (6-0) was introduced into the internal carotid artery lumen and gently advanced approximately 8-9 mm to block the MCA blood flow for 50 min. The rectal temperature was maintained at 37.0±0.5° C. during surgery through a temperature-controlled heating pad. Achievement of ischemia was confirmed by monitoring regional cerebral blood flow (rCBF) with laser speckle contrast imager (Pericam). For reperfusion, the suture was withdrawn after the MCAO. The incision was closed and the mouse recovered under a heating lamp to maintain the core temperature (36.0-37.0° C.) during the 30-60 min recovery period. After recovery, animals were returned to their cages with free access to food and water.
(§3) Vehicle: DMSO (2 ml/kg body weight/day), the NKCC1 inhibitor bumetanide (BMT, 10 mg/kg body weight/day in DMSO), bumetanide's prodrug STS5 (13 mg/kg body weight/day in DMSO), or the novel NKCC1 inhibitor STS66 according to the invention (12 mg/kg body weight/day in DMSO) was administered via intraperitoneal injection (i.p). The initial half dose of the drugs (BMT, STS5, STS66) was given at 3 h after the onset of reperfusion and the second half dose at 8 h reperfusion in the tMCAO model.
At 24 h post-reperfusion, mice were anesthetized with 5% isoflurane and then decapitated. Coronal brain slices (2 mm thickness) were stained with 1% 2,3,5-triphenyltetrazolium chloridemonohydrate (TTC) for 20-30 min and brain slices were scanned (Begum G et al., 2015). Ischemic lesions were traced in each slice in a blinded manner, and the total volume of infarction was calculated with correction for edema, as described by Swanson et al., 1990 using ImageJ software. Infarct areas were summed across all slices and multiplied by slice thickness to yield total infarct volume (mm^3). Brain swelling was determined with the following formula. For tMCAO: swelling (% contralateral hemispheric volume)=[(ipsilateral hemispheric volume)−(contralateral hemispheric volume)]/(contralateral hemispheric volume)×100, as described before (Guo Q G et al., 2009; Sunghee Cho et al., 2005).

[2] = tested on: transient focal cerebral ischemia (tMCAO) in mice; experiment: Body weight and survival 1-14 days after tMCAO; assay type: in vivo, mouse
Method: as §1, §2, §3

CCCCNc1cc(C(=O)OCCN(C)C)cc(S(N)(=O)=O)c1Oc1ccccc1 [STS5]
infarct volume in female mice ([1]; female mice only, STS5 13, STS66 12 mg/kg/day): 46.9±5.0 mm^3
hemispheric edema (hemisphere swelling) ([1]; normotensive C57BL/6j mice, half dose at 3 h and 8 h reperfusion, BMT 10, STS5 13, STS66 12 mg/kg/day, mean±SD): 12.6±4.5%
infarct volume ([1]; normotensive C57BL/6j mice, male and female combined, half dose at 3 h and 8 h reperfusion, BMT 10, STS5 13, STS66 12 mg/kg/day, mean±SD): 49.5±20.6 mm^3
body weight changes ([2]; 1-14 days after tMCAO, versus DMSO Veh control): no differences in the body weight changes
mortality rate ([2]; between 1-14 days post tMCAO, BMT 10, STS5 13, STS66 12 mg/kg/day i.p.): ~66.7%
